Earlier results, collected in patent US10898503B2, “Cleavable drug conjugates, compositions thereof and methods of use” (priority 2013, dated 2021).
Read-outs that look alike come from different tables or passages of the source.

Assays:
[1] = in vivo
[2] = patients

## enfuvirtide
[1]
  half-life: four

## COc1cccc2c1C(=O)c1c(O)c3c(c(O)c1C2=O)C[C@@](O)(C(=O)CO)C[C@@H]3O[C@H]1C[C@H](N)[C@H](O)[C@H](C)O1 [Doxorubicin]
[2]; cumulative dose of 300 mg/m^2
  chance of developing cardiomyopathy: 1-2%
[2]; cumulative dose of 400 mg/m^2
  chance of developing cardiomyopathy: 3-5%
[2]; cumulative dose of 450 mg/m^2
  chance of developing cardiomyopathy: 5 to 8%
[2]; cumulative dose of 500 mg/m^2
  chance of developing cardiomyopathy: 6-20%
